The numbers were not newly measured in patent US10507185B2, “Composite structural material and pharmaceutical composition thereof” (INNOVACO PHARMACEUTICALS, INC, priority 2013, dated 2019), which cites them from elsewhere.

`CC(C)n1c(/C=C/C(O)CC(O)CC(=O)O)c(-c2ccc(F)cc2)c2ccccc21` (stereo not shown) [Fluvastatin, fluvastatin]: the pKa value is 4.6.
